Consider 1 compound from ChEMBL document CHEMBL5291721, “A preclinical secondary pharmacology resource illuminates target-adverse drug reaction associations of marketed drugs” (Nat Commun, 2023).

Experiment [1] concerns the target T1, Alpha-1A adrenergic receptor (Homo sapiens, UniProt P35348).
T1 sequence (P35348 whole entry): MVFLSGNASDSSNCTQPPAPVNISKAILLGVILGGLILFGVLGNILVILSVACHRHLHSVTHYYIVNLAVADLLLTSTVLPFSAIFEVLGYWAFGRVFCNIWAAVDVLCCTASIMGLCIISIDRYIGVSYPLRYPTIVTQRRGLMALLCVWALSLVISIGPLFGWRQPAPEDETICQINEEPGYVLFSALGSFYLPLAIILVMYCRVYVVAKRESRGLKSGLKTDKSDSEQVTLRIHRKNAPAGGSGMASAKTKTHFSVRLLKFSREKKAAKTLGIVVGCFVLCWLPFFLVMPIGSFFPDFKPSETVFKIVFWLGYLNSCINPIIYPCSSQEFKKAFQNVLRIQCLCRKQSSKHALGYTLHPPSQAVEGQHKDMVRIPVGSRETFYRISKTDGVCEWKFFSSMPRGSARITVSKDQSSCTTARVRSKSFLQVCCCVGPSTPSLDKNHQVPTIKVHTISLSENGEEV
In kind it is functional, cell-based.

Experiment [2] deals with T1, Alpha-1A adrenergic receptor. In kind it is functional, cell-based. This is another data set of the same source.
Experiment [3] deals with T2, Alpha-2A adrenergic receptor (Homo sapiens, UniProt P08913).
T2 sequence (P08913 whole entry): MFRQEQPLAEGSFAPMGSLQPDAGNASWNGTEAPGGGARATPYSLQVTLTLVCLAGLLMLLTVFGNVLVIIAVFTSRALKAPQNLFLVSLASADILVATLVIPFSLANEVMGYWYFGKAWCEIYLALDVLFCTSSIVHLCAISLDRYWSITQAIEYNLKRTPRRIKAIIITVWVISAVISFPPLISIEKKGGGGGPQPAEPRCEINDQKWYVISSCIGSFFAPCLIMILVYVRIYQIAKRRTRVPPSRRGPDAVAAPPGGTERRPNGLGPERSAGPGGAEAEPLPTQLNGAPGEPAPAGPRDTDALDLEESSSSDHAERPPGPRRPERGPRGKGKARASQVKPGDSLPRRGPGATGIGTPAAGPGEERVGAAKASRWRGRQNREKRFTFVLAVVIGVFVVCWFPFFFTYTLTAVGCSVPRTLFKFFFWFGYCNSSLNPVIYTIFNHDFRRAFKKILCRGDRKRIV

Experiment [4] has as its target T3, Muscarinic acetylcholine receptor M2 (Homo sapiens, UniProt P08172).
T3 sequence (P08172 whole entry): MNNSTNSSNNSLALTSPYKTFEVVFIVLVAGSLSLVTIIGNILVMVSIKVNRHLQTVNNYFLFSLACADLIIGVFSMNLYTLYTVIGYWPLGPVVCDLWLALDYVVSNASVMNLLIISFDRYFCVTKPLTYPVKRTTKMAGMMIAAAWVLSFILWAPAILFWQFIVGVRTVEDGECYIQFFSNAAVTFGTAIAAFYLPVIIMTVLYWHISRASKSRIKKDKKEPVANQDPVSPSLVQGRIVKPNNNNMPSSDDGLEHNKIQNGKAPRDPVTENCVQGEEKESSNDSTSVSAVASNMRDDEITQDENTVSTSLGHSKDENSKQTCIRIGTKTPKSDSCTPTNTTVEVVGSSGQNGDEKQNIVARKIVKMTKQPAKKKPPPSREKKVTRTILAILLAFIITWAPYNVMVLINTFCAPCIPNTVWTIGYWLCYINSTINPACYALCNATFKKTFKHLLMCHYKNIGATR

In experiment [5] the target is D(3) dopamine receptor (Homo sapiens, UniProt P35462).
Sequence of D(3) dopamine receptor (P35462 whole entry): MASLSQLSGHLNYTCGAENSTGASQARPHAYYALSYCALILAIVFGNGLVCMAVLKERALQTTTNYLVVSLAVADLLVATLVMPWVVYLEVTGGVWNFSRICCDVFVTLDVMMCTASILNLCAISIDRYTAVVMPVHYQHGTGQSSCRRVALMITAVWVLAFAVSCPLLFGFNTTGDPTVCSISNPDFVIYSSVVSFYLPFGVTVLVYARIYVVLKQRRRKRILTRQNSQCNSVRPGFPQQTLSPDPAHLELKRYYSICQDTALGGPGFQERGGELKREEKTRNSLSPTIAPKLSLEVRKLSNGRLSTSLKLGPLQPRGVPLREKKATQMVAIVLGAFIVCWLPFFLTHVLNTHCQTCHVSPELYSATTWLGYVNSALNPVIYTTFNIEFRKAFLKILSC
The target of experiment [6] is T4, Estrogen receptor (Homo sapiens, UniProt P03372).
T4 sequence (P03372 whole entry): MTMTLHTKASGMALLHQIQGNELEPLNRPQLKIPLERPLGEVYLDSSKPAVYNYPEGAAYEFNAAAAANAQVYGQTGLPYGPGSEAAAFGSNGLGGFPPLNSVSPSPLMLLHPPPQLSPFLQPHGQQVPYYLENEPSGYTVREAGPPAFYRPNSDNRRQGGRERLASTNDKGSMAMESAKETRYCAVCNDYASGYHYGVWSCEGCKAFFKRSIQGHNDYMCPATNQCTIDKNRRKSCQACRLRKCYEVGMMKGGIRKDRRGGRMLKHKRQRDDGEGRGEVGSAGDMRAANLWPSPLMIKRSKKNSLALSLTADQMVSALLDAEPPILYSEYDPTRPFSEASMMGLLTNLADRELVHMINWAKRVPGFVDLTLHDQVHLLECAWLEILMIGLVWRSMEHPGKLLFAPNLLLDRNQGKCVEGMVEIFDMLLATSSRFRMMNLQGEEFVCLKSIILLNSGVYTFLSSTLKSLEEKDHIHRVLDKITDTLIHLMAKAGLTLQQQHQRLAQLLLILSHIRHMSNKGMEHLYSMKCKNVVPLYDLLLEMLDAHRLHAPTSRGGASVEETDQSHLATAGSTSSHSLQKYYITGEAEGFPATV

Experiment [7] addresses Histamine H3 receptor (Homo sapiens, UniProt Q9Y5N1).
For experiment [8], the target named is Voltage-gated inwardly rectifying potassium channel KCNH2 (Homo sapiens, UniProt Q12809). In kind it is functional. The settings on record: read-out: AC50.
Sequence of Voltage-gated inwardly rectifying potassium channel KCNH2 (Q12809 whole entry): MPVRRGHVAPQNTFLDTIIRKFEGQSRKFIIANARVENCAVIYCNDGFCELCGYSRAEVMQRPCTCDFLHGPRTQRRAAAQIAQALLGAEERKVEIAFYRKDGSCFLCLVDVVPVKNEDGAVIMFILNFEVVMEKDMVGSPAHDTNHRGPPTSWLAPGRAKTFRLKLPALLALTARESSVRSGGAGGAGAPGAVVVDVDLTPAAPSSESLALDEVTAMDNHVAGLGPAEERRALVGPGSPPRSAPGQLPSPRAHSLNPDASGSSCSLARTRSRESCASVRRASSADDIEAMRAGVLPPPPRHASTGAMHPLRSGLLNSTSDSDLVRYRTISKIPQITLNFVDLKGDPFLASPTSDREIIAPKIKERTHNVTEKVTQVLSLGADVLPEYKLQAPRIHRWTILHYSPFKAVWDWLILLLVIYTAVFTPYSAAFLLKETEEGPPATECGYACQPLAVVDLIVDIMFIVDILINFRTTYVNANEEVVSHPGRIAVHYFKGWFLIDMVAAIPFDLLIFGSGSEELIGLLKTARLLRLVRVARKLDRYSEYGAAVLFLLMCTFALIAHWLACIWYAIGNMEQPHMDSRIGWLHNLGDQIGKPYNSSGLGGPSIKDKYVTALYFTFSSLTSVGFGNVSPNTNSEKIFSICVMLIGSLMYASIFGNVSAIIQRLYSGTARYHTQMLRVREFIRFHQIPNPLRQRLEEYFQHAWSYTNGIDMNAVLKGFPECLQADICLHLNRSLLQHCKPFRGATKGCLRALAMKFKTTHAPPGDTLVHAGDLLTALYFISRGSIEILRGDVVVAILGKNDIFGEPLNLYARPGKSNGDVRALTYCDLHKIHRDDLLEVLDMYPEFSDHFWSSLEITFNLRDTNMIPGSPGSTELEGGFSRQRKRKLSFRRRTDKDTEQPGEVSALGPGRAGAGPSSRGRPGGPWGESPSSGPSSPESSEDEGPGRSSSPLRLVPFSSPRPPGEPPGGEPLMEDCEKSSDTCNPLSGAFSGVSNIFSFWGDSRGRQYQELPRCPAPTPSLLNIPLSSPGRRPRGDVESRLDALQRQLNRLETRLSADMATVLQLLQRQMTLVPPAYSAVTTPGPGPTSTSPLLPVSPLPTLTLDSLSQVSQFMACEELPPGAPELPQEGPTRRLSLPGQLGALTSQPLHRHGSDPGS
The target in experiment [9] is Mu-type opioid receptor (Homo sapiens, UniProt P35372).
Sequence of Mu-type opioid receptor (P35372 whole entry): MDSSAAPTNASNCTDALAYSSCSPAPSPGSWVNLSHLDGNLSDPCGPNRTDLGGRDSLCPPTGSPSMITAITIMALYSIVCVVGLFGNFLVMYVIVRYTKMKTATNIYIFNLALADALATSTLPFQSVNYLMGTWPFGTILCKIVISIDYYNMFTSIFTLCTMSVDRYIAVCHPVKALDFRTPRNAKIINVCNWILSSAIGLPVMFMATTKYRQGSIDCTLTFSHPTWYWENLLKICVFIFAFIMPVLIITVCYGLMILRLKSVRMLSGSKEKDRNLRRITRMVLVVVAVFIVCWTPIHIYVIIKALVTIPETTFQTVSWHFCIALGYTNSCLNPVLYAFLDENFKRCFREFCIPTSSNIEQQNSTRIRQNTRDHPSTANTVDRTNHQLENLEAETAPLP
Experiment [10] has as its target 3',5'-cyclic-AMP phosphodiesterase 4A (Homo sapiens, UniProt P27815). In kind it is functional.
The target in experiment [11] is Sodium-dependent serotonin transporter (Homo sapiens, UniProt P31645).
Sequence of Sodium-dependent serotonin transporter (P31645 whole entry): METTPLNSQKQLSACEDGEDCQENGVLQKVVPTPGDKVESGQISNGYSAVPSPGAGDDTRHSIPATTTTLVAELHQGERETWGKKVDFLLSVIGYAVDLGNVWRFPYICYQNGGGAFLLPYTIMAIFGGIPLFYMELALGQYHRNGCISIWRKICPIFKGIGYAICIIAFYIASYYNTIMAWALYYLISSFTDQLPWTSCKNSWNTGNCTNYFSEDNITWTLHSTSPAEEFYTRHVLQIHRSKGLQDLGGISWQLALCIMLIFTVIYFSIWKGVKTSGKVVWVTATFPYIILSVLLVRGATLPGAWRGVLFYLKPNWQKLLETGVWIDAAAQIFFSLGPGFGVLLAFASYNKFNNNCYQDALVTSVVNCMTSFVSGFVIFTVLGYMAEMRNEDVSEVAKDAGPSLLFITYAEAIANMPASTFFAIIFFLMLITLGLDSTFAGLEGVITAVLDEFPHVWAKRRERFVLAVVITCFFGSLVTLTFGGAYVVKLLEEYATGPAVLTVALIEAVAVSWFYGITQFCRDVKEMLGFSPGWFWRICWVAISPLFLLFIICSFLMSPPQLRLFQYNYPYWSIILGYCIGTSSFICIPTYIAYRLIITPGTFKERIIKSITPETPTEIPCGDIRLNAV
Further: assay procedure not described here.

Sequence of 3',5'-cyclic-AMP phosphodiesterase 4A (P27815 whole entry): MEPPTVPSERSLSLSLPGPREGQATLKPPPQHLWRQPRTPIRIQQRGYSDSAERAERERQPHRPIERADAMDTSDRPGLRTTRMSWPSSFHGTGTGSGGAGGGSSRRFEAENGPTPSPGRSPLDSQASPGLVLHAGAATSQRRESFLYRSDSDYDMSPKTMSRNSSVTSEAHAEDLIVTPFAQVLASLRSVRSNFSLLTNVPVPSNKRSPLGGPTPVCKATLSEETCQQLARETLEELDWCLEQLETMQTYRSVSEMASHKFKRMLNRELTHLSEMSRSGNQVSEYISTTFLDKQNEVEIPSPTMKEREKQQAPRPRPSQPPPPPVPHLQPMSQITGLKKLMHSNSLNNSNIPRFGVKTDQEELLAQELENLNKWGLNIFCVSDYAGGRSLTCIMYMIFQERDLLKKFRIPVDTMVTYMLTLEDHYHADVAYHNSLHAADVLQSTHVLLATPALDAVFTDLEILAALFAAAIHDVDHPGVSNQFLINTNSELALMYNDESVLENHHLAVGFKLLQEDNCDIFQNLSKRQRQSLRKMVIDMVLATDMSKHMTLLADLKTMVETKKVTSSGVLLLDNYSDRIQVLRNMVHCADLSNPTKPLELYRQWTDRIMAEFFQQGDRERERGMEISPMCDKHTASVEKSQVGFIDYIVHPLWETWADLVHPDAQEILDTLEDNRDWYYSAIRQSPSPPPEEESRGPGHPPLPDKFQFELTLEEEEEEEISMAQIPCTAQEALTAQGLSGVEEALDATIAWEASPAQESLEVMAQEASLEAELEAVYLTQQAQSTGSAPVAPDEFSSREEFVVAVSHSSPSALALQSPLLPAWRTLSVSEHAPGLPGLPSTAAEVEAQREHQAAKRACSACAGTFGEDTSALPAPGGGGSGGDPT
Sequence of Histamine H3 receptor (Q9Y5N1 whole entry): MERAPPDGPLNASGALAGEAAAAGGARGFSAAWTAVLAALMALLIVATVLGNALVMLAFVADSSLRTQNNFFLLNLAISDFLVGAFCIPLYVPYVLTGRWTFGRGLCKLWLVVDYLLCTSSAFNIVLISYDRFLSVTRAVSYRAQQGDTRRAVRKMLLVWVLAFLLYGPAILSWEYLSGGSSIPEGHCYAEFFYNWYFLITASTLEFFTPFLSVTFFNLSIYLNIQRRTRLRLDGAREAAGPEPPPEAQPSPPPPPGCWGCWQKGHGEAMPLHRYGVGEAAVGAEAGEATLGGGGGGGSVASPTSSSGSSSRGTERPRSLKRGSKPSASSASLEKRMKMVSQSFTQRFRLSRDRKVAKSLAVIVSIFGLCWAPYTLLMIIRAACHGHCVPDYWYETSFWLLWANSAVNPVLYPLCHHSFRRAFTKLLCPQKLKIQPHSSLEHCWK

Turning to `COc1cc(C[C@@H]2NCCc3cc(O)c(O)cc32)cc(OC)c1OC` [TRETOQUINOL], the AC50 (in general, the midpoint of the concentration-response curve, whichever way the signal moves) is greater than 30 µM in experiment [1]; greater than 30 µM in [2]; 0.829 µM in experiment [3]; greater than 30 µM in experiment [4]; 1.81 µM in experiment [5]; greater than 30 µM in [6]. Besides, the AC50 in experiment [7] was greater than 30 µM; in [8], greater than 30 µM; in experiment [9], 15.5 µM; in experiment [10], greater than 30 µM; in experiment [11], greater than 30 µM.
